In ChEMBL document CHEMBL4831554, “Diverse, Potent, and Efficacious Inhibitors That Target the EED Subunit of the Polycomb Repressive Complex 2 Methyltransferase” (J Med Chem, 2021):

Assays:
[1] = Volume of distribution at steady state in rat at 1 mg/kg, po or 0.5 mg/kg, iv; type: ADME, organism-based; settings: in vivo, read-out: Vdss
[2] = Bioavailability in rat at 1 mg/kg, po or 0.5 mg/kg, iv; type: ADME, organism-based; settings: in vivo
[3] = Intrinsic clearance in human hepatocytes assessed per million cells at 1 uM measured upto 30 mins by HPLC analysis; type: ADME, cell-based, Hepatocyte; settings: read-out: CLH
[4] = Apparent permeability of compound in human Caco-2 cells; type: ADME, cell-based
[5] = Intrinsic clearance in human liver microsomes at 1 uM preincubated with NADPH for 5 mins followed by compound addition and measured upto 30 mins by LC-MS/MS analysis; type: ADME, Microsome; settings: read-out: CLH
[6] = Lipophilicity, logD of the compound in Octanol/phosphate buffer at pH 7.4 after 30 mins by shake-flask method; type: physicochemical
[7] = Clearance in rat at 1 mg/kg, po or 0.5 mg/kg, iv; type: ADME, organism-based; settings: in vivo

Cc1ncccc1-c1cnc(NCc2c(F)ccc3c2CCO3)n2cnnc12
Vd [1]: 3.7 L/kg | bioavailability [2]: 74% | hepatocyte CLint at 1 µM [3]: 2.6 µL/min/1e6 cells | Papp [4]: 38.7 10^-6 cm/s | microsomal CLint at 1 µM [5]: 15 µL/min/mg | logD at 0.5 h [6]: 2.5 | clearance [7]: 19 mL/min/kg

Cc1ncccc1-c1cnc(NCc2c(F)ccc3c2CCO3)c2nn(CC#N)c(=O)n12
microsomal CLint at 1 µM [5]: 151 µL/min/mg | logD at 0.5 h [6]: 2.2

O=C1Cc2ccccc2CN1c1cnc(NCc2c(F)ccc3c2CCO3)n2cnnc12
microsomal CLint at 1 µM [5]: 16 µL/min/mg | logD at 0.5 h [6]: 2.7

O=C1Oc2ccccc2CN1c1cnc(NCc2c(F)ccc3c2CCO3)n2cnnc12
microsomal CLint at 1 µM [5]: 24 µL/min/mg | logD at 0.5 h [6]: 2.7

O=C1c2ccccc2CN1c1cnc(NCc2c(F)ccc3c2CCO3)n2cnnc12
hepatocyte CLint at 1 µM [3]: 2.7 µL/min/1e6 cells | microsomal CLint at 1 µM [5]: 13 µL/min/mg | logD at 0.5 h [6]: 2.7

CN(c1cn(C)cn1)c1cnc(NCc2c(F)ccc3c2CCO3)n2cnnc12
microsomal CLint at 1 µM [5]: 5.7 µL/min/mg | logD at 0.5 h [6]: 1.6

CNC(=O)c1ccc(-c2cnc(NCc3c(F)ccc4c3CCO4)c3cn[nH]c(=O)c23)c(C)n1
Vd [1]: 2.7 L/kg | bioavailability [2]: 53% | hepatocyte CLint at 1 µM [3]: 3 µL/min/1e6 cells | Papp ([4]; read-out: Papp): 54.1 ×10⁻⁶ cm/s | microsomal CLint at 1 µM [5]: 23 µL/min/mg | logD at 0.5 h [6]: 2.9 | clearance [7]: 24 mL/min/kg

CN(C)Cc1ccc(C(=O)Nc2cnc(NCc3c(F)ccc4c3CCO4)n3cnnc23)cc1
microsomal CLint at 1 µM [5]: 13 µL/min/mg | logD at 0.5 h [6]: 1.8

Cc1nccn1-c1cnc(NCc2c(F)ccc3c2CCO3)c2cn[nH]c(=O)c12
microsomal CLint at 1 µM [5]: 8 µL/min/mg | logD at 0.5 h [6]: 2.1

Cc1nc(C(=O)N(C)C)ccc1-c1cnc(NCc2c(F)ccc3c2CCO3)c2cn[nH]c(=O)c12
Vd [1]: 1.9 L/kg | bioavailability [2]: 22% | hepatocyte CLint at 1 µM [3]: < 1.3 µL/min/1e6 cells | Papp ([4]; read-out: Papp): 1.7 ×10⁻⁶ cm/s | microsomal CLint at 1 µM [5]: 19 µL/min/mg | logD at 0.5 h [6]: 2.1 | clearance [7]: 54 mL/min/kg

CNC(=O)c1ncc(-c2cnc(NCc3c(F)ccc4c3CCO4)c3cn[nH]c(=O)c23)n1C
microsomal CLint at 1 µM [5]: 24 µL/min/mg | logD at 0.5 h [6]: 2.5

O=C1CCCN1c1cnc(NCc2c(F)ccc3c2CCO3)c2cn[nH]c(=O)c12
microsomal CLint at 1 µM [5]: 23 µL/min/mg | logD at 0.5 h [6]: 1.8

O=C1CCCN1c1cnc(NCc2c(F)ccc3c2CCO3)n2cnnc12
microsomal CLint at 1 µM [5]: < 3 µL/min/mg | logD at 0.5 h [6]: 1.3

CN(C)C(=O)c1cc(-c2cnc(NCc3c(F)ccc4c3CCO4)c3cn[nH]c(=O)c23)n(C)n1
microsomal CLint at 1 µM [5]: 21 µL/min/mg | logD at 0.5 h [6]: 2.1

CN(c1ccncc1)c1cnc(NCc2c(F)ccc3c2CCO3)n2cnnc12
microsomal CLint at 1 µM [5]: 5.2 µL/min/mg | logD at 0.5 h [6]: 1.4

CN(c1cnn(C)c1)c1cnc(NCc2c(F)ccc3c2CCO3)n2cnnc12
microsomal CLint at 1 µM [5]: 8.9 µL/min/mg | logD at 0.5 h [6]: 2.2

Cc1ncc(-c2cnc(NCc3c(F)ccc4c3CCO4)c3cn[nH]c(=O)c23)n1C
microsomal CLint at 1 µM [5]: 10 µL/min/mg | logD at 0.5 h [6]: 1.9

Cn1nccc1-c1cnc(NCc2c(F)ccc3c2CCO3)c2cn[nH]c(=O)c12
microsomal CLint at 1 µM [5]: 14 µL/min/mg | logD at 0.5 h [6]: 2.6

COc1ccccc1C(=O)Nc1cnc(NCc2c(F)ccc3c2CCO3)n2cnnc12
microsomal CLint at 1 µM [5]: 20 µL/min/mg | logD at 0.5 h [6]: 3.1

CN(c1ccccc1)c1cnc(NCc2c(F)ccc3c2CCO3)n2cnnc12
microsomal CLint at 1 µM [5]: 55 µL/min/mg | logD at 0.5 h [6]: 3.6

O=C(Nc1cnc(NCc2c(F)ccc3c2CCO3)n2cnnc12)c1ccccc1
microsomal CLint at 1 µM [5]: 10 µL/min/mg | logD at 0.5 h [6]: 3

O=C1CC2(CC2)CN1c1cnc(NCc2c(F)ccc3c2CCO3)n2cnnc12
Vd [1]: 1.4 L/kg | bioavailability [2]: 68% | hepatocyte CLint at 1 µM [3]: 3.5 µL/min/1e6 cells | microsomal CLint at 1 µM [5]: < 3 µL/min/mg | logD at 0.5 h [6]: 1.9 | clearance [7]: 23 mL/min/kg

CN(C)Cc1ccc2c(c1)CN(c1cnc(NCc3c(F)ccc4c3CCO4)c3cn[nH]c(=O)c13)C2=O
microsomal CLint at 1 µM [5]: 32 µL/min/mg | logD at 0.5 h [6]: 2.2

Fc1ccc2c(c1CNc1ncc(Nc3ccccc3)c3nncn13)CCO2
microsomal CLint at 1 µM [5]: 20 µL/min/mg | logD at 0.5 h [6]: 3.3

Cc1cc(-c2cnc(NCc3c(F)ccc4c3CCO4)c3cn[nH]c(=O)c23)n(C)n1
microsomal CLint at 1 µM [5]: 24 µL/min/mg | logD at 0.5 h [6]: 3

Fc1ccc2c(c1CNc1ncc(Oc3ccccc3)c3nncn13)CCO2
microsomal CLint at 1 µM [5]: 18 µL/min/mg | logD at 0.5 h [6]: 3.5

CN(c1ccn(C)n1)c1cnc(NCc2c(F)ccc3c2CCO3)n2cnnc12
Vd [1]: 3 L/kg | bioavailability [2]: 67% | hepatocyte CLint at 1 µM [3]: < 1 µL/min/1e6 cells | microsomal CLint at 1 µM [5]: 11 µL/min/mg | logD at 0.5 h [6]: 1.8 | clearance [7]: 29 mL/min/kg

C[C@H]1CC(=O)N(c2cnc(NCc3c(F)ccc4c3CCO4)n3cnnc23)C1
microsomal CLint at 1 µM [5]: < 3 µL/min/mg | logD at 0.5 h [6]: 1.8

CN(c1ncco1)c1cnc(NCc2c(F)ccc3c2CCO3)n2cnnc12
Vd [1]: 3.1 L/kg | bioavailability [2]: 61% | hepatocyte CLint at 1 µM [3]: 1.4 µL/min/1e6 cells | microsomal CLint at 1 µM [5]: 11 µL/min/mg | logD at 0.5 h [6]: 2.1 | clearance [7]: 29 mL/min/kg

Cc1ncccc1-c1cnc(NCc2c(F)ccc3c2CCO3)c2cn[nH]c(=O)c12
hepatocyte CLint at 1 µM [3]: 4.6 µL/min/1e6 cells | microsomal CLint at 1 µM [5]: 41 µL/min/mg | logD at 0.5 h [6]: 3

Cn1cc(-c2cnc(NCc3c(F)ccc4c3CCO4)c3cn[nH]c(=O)c23)cn1
microsomal CLint at 1 µM [5]: 21 µL/min/mg | logD at 0.5 h [6]: 2.7

Cc1nc(CN(C)C)ccc1-c1cnc(NCc2c(F)ccc3c2CCO3)c2cn[nH]c(=O)c12
Papp ([4]; read-out: Papp): < 0.6 ×10⁻⁶ cm/s | microsomal CLint at 1 µM [5]: 13 µL/min/mg | logD at 0.5 h [6]: 2

Cc1ncccc1-c1cnc(NCc2c(F)ccc3c2CCO3)c2n[nH]c(=O)n12
microsomal CLint at 1 µM [5]: 8 µL/min/mg | logD at 0.5 h [6]: 2.5

CN(c1cccnc1)c1cnc(NCc2c(F)ccc3c2CCO3)n2cnnc12
microsomal CLint at 1 µM [5]: 80 µL/min/mg | logD at 0.5 h [6]: 2.6

CNC(=O)c1cc(-c2cnc(NCc3c(F)ccc4c3CCO4)c3cn[nH]c(=O)c23)n(C)n1
microsomal CLint at 1 µM [5]: < 3 µL/min/mg | logD at 0.5 h [6]: 2.1

O=C1c2cnccc2CN1c1cnc(NCc2c(F)ccc3c2CCO3)n2cnnc12
microsomal CLint at 1 µM [5]: 5 µL/min/mg | logD at 0.5 h [6]: 1.6

CN(C)Cc1ccc2c(c1)CN(c1cnc(NCc3c(F)ccc4c3CCO4)n3cnnc13)C2=O
microsomal CLint at 1 µM [5]: 19 µL/min/mg | logD at 0.5 h [6]: 1.6

O=C(Nc1ccccc1)c1cnc(NCc2c(F)ccc3c2CCO3)n2cnnc12
microsomal CLint at 1 µM [5]: 14 µL/min/mg | logD at 0.5 h [6]: 4.1

Cc1nn(C)cc1-c1cnc(NCc2c(F)ccc3c2CCO3)c2cn[nH]c(=O)c12
microsomal CLint at 1 µM [5]: 27 µL/min/mg | logD at 0.5 h [6]: 2.8

Cc1ncccc1-c1cnc(NCc2c(F)ccc3c2CCO3)n2c(=O)[nH]nc12
microsomal CLint at 1 µM [5]: 36 µL/min/mg | logD at 0.5 h [6]: 3

Cc1nc(CO)ccc1-c1cnc(NCc2c(F)ccc3c2CCO3)c2cn[nH]c(=O)c12
microsomal CLint at 1 µM [5]: 11 µL/min/mg | logD at 0.5 h [6]: 2.4

O=C1c2ccc(OCCN3CCCC3)cc2CN1c1cnc(NCc2c(F)ccc3c2CCO3)n2cnnc12
Vd [1]: 6.5 L/kg | Papp ([4]; read-out: Papp): < 0.6 ×10⁻⁶ cm/s | microsomal CLint at 1 µM [5]: 18 µL/min/mg | logD at 0.5 h [6]: 1.6 | clearance [7]: 35 mL/min/kg

CN(c1ccn(C)n1)c1cnc(NCc2c(F)ccc3c2CCO3)c2cn[nH]c(=O)c12
microsomal CLint at 1 µM [5]: 62 µL/min/mg | logD at 0.5 h [6]: 2.4

CC(=O)N1CCC(c2cnc(NCc3c(F)ccc4c3CCO4)c3cn[nH]c(=O)c23)CC1
microsomal CLint at 1 µM [5]: 207 µL/min/mg | logD at 0.5 h [6]: 2.9

C[C@@H]1CC(=O)N(c2cnc(NCc3c(F)ccc4c3CCO4)n3cnnc23)C1
microsomal CLint at 1 µM [5]: < 3 µL/min/mg | logD at 0.5 h [6]: 1.8

CC1(C)CC(=O)N(c2cnc(NCc3c(F)ccc4c3CCO4)n3cnnc23)C1
microsomal CLint at 1 µM [5]: 16 µL/min/mg | logD at 0.5 h [6]: 2

O=C(Nc1cnc(NCc2c(F)ccc3c2CCO3)n2cnnc12)c1cccnc1
microsomal CLint at 1 µM [5]: < 3 µL/min/mg | logD at 0.5 h [6]: 2

Cc1ncccc1-c1cnc(NCc2c(F)ccc3c2CCO3)c2ncc(=O)[nH]c12
microsomal CLint at 1 µM [5]: 21 µL/min/mg | logD at 0.5 h [6]: 2.8

COCCC(=O)Nc1cnc(NCc2c(F)ccc3c2CCO3)n2cnnc12
microsomal CLint at 1 µM [5]: < 3 µL/min/mg | logD at 0.5 h [6]: 1.4

CN(C(=O)c1ccccc1)c1cnc(NCc2c(F)ccc3c2CCO3)n2cnnc12
microsomal CLint at 1 µM [5]: > 300 µL/min/mg | logD at 0.5 h [6]: 2.4
